Measured values taken from ChEMBL document CHEMBL1133955, “Design and synthesis of new inhibitors of HIV-1 protease dimerization with conformationally constrained templates” (Bioorg Med Chem Lett, 2001).

Key:
[1] = molecular target: Human immunodeficiency virus type 1 protease (Human immunodeficiency virus 1) (UniProt Q72874); test: Compound was tested for inhibition of HIV-1 protease by a dissociative mechanism
[2] = molecular target: Human immunodeficiency virus type 1 protease (Human immunodeficiency virus 1, UniProt Q72874); test: Inhibitory activity against HIV-1 protease
[3] = molecular target: Human immunodeficiency virus type 1 protease (Human immunodeficiency virus 1) (UniProt Q72874); test: Compound was tested for inhibition of HIV-1 protease (taken from ZhangPoorman plot)

Compound | Kid [1] [µM] | IC50 [2] [µM] | Kid [3] [µM]
CC[C@@H](C)[C@H](NC(=O)[C@@H](NC(=O)[C@H](CC(C)C)NC(=O)[C@@H](N)Cc1c[nH]c2ccccc12)[C@H](C)O)C(=O)NCCc1cccc2c1oc1c(CCC(=O)N[C@H](C(=O)N[C@@H](Cc3ccc(O)cc3)C(=O)N[C@@H](CC(N)=O)C(=O)N[C@@H](Cc3ccccc3)C(=O)O)[C@H](C)O)cccc12 | 5.4 | 12 | –
COc1ccc(NC(=O)C(=O)O)cc1C(=O)NNC(=O)OCC1c2ccccc2-c2ccccc21 | – | 30 | 9.1
